Measurements from patent publication US10519132B2, “Isocorydine derivatives, preparation method and use thereof” (Lanzhou Institute of Chemical Physics, Chinese Academy of …, priority 2017, dated 2019).
Like-named read-outs stand apart in the source and are kept apart here.

Tests used:
[1] = tested on: human liver cancer cell strain HepG2; experiment: MTT growth inhibition on HepG2; type: cell-based; settings: read-out: IC50 HepG2;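 also: adherent cells in 96-well plates treated with a concentration series for 24, 48 or 72 h, MTT absorbance read at 490 nm, inhibition computed relative to untreated control wells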
Description: (§5) By using an MTT method, a sample solution to be tested was added to a 96-well plate in which cancer cells were adherently grown. Culturing was performed for a certain period, and the growth inhibition effect of a compound on a human cancer cell strain for primary screening was measured to determine the anti-cancer activity of the compound.
(§6) Cell culture: A cell incubator was set to conditions of 37° C., 5% CO2, and a saturated humidity, cells were cultured under these conditions, and the cell medium was a DMEM complete medium, wherein 10% fetal bovine serum, 100 IU/mL penicillin, and 100 μg/mL streptomycin were comprised.
(§7) The single cell suspension was diluted to 5×10^3/100 μL after counting, inoculated on a 96-well cell culture plate (triplicate), and adherently cultured overnight;
(§8) After 24 h of adhesion, the complete medium was discarded, 100 μL-sample-solutions to be tested having different concentrations were sequentially added to the 96-well plate according to a concentration gradient, and incubations were continued for 24 h, 48 h, and 72 h;
(§9) The culture liquid was discarded, a 0.5 mg/mL MTT diluted working liquid was added, and incubation was performed for 4 h by placing in an incubator;
(§10) The culture liquid was discarded, 100 μL of DMSO was added, low-speed oscillation was performed for 10 min by placing on a shaker, and the spectrophotometric value of each well was measured at a wavelength of 490 nm by using a microplate reader. Statistical analysis was performed and tumor cell growth inhibition rate was calculated according to the equation: Growth inhibition rate=(OD value of control group−OD value of experimental group)/OD value of control group.
(§11) Culturing was performed for a certain period, the growth inhibition effect of a compound on 3 human cancer cell strains for primary screening was measured to determine the anti-cancer activity of the compound, and a growth inhibition curve was plotted.

various HCC = settings: background; read-out: IC50 values, inhibition of tumor growth of various HCC; cited from earlier work
[2] = tested on: human cervical cancer Hela cell strains; experiment: MTT growth inhibition on Hela;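 also: compound exposure of 24, 48 or 72 h in DMEM with 10% fetal bovine serum, MTT absorbance read at 490 nm, inhibition calculated relative to control group OD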
Description: as §5, §6, §7, §8, §9, §10, §11

[3] = tested on: human gastric cancer cell strain MGC-803; experiment: MTT growth inhibition on MGC-803;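 also: adherent cells exposed to compound over a concentration gradient for 24, 48 and 72 h, MTT absorbance at 490 nm, inhibition relative to untreated control wells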
Description: as §5, §6, §7, §8, §9, §10, §11

[4] = background; cited from earlier work
HepG2 cells [5] = experiment: Apoptosis induction, Annexin V and PI double-staining, flow cytometry; type: cell-based, human; settings: HepG2, 24 h; sorafenib 4 μg/mL; combination 4 μg/mL sorafenib+5 μg/mL FICD
Description: Different concentrations of FICD were added on the second day, culture was continued for 24 h, cells were collected and washed 3 times with precooled PBS, and adherent cells were digested with trypsin free of EDTA. The solutions were combined, centrifuged, and washed 3 times again with precooled PBS. 400 μL of solution containing 5 μL of V-FITC and 10 μL of PI was added, incubation was performed at room temperature under protection from light, and detection was performed by flowcytometry after 30 min.

HepG2 cells [6] = experiment: Cell cycle distribution by flow cytometry; type: cell-based, human; settings: sorafenib 5 μg/mL, FICD 10 μg/mL, combination 5 μg/mL FICD+10 μg/mL sorafenib
Description: 1 mL of 70% precooled (−20° C.) ethanol was added to the cell precipitate, homogenized by pipetting, and fixed at 4° C. overnight. On the second day, HepG2 cells was collected by centrifugation, 2 mL of precooled PBS was added for washing 3 times, 500 μL of PBS containing 50 μg/mL […] (PI) and 100 μg/mL RNaseA was added, and incubation was performed at 4° C. under protection from light for 30 min. Detection was performed on a flow cytometer, and results can be seen in FIG. 9 and FIG. 10.

HepG2 cells [7] = experiment: Apoptosis induction by laser confocal scanning microscope; type: cell-based, human; settings: HepG2, 48 h
Description: Two solutions (a former one and a later one) were mixed, centrifugation was performed at 1000 r/min for 5 min, the supernatant was discarded, and washing was performed for 3 times with PBS. The cell precipitate was resuspended in Binding Buffer, 10 μL of a FITC-Annen V staining liquid was added, homogenized by pipetting slightly, and reaction was performed under protection from light. PI was added for staining for 15 min, centrifugation was performed, the supernatant was discarded, and washing was performed for 3 times again with PBS. A glass slide was loaded by applying the cell precipitate thereto and mounted with non-fluorescent buffering glycerol, a laser confocal scanning microscope was immediately used for observation and taking photographs at wavelengths of 488 nm and 560 nm. Meanwhile, cells without AnneixnV-FITC and PI added were used as a negative control.

[8] = tested on: C-Myc, Ki-67, CylinD1, β-Catenin protein; experiment: Western blotting, protein expression in HepG2 cells; type: cell-based, human; settings: sorafenib 4 μg/mL
Description: (§1) Method: Gel electrophoresis of protein samples. Gel formulation: All components were added to a small beaker according to a formulation of a separation gel, uniformly mixed with slightly shaking to prevent the generation of bubbles, quickly applied to a seam of a glass plate with a 1 mL pipette, and then blocked with double distilled water to prevent oxidation. After 30 min, the separation gel solidified, the double distilled water thereof was poured off, waster was suctioned with a filter paper, a 5% concentration gel was formulated, TEMED was finally loaded onto the glass plate, and a 1.0 mm comb was inserted into the concentration gel and placed at room temperature for 30 min. The comb was slightly, vertically, and carefully pulled up, various groups of 20 μL protein samples were pipetted with a microsyringe, an equal volume of a loading buffer and an equal volume of a loading buffer containing 3 μL of Marker were separately added to a loading well, an electrophoresis instrument was switched on after electrodes were plugged, gels were run at 75V for 30 min, and the voltage was changed to 120V and gels were run for 2 h when bromophenol blue reaches the separation gel. Membrane transfer: A PVDF membrane having a suitable size was cut according to the size of the gel, placed in a methanol solution for 1 min, lifted, and placed and soaked together with a well cut filter paper in a previously precooled membrane transfer buffer. A sponge pad, three layers of filter paper, a gel, three layers of filter paper, and a sponge pad, in this order from top to bottom, were placed in a membrane transfer tank, and a precooled membrane transfer buffer was then added. Several ice bags were placed circumferentially to prevent an excessively hot external environment, and electrodes were plugged and membrane transfer was performed at a constant current of […] for 2.5 hours. Blocking and incubation of antibodies: A transferred membrane was cut into desired bands, which were placed in a blocking solution of 5% skim milk powder, placed on a shaker, and shaken at room temperature at a low speed for 1 h. A primary antibody was diluted with the blocking solution, a corresponding antibody was pipetted and added to a zip lock bag, the PVDF membrane was then placed in the antibody dilution, bubbles in the zip lock bag were evacuated, and the zip lock bag was sealed and placed in a refrigerator at 4° C. overnight. The membrane was withdrawn from the zip lock bag on the second day, and placed in a clean dish. A TBST solution was added and washed 3 times on a low-speed shaker, 10 min for each time. […]

Vimentin = experiment: Western blotting, Vimentin expression in HepG2 cells; type: cell-based, human
Description: as §1

[9] = tested on: ascites hepatoma H22 induced solid tumor; experiment: In vivo tumor growth inhibition in mice bearing H22; parameters: species or system white Kunming mice; settings: sorafenib 50 mg/Kg
Excerpt: 1. Tumor strain and animal for experiments: H22 liver cancer cell strain was provided by Teaching and Research Office, School of Basic Medical Sciences, Lanzhou University/Key Lab of Preclinical Study for New Drugs of Gansu Province, and was passage and preserved by periodically intraperitoneal inoculation. White Kunming mice (18.0-22.0 g) were provided by Lanzhou Veterinary Institute, Chinese Academy of Agriculture.
(§2) 2. Establishment of tumor models and method of grouping: a third passage of mice which were well grown 7 d after intraperitoneal inoculation of H22 tumor cells were sacrificed by cervical dislocation, and placed and soaked in 75% alcohol for 10 min. After 3 mL of sterile physiological saline was intraperitoneally injected, milky tumor cell ascites was withdrawn from the abdominal cavity, and formulated into a tumor cell suspension with sterile physiological saline, with a cell number of 1.5×10^7 mL^−1. 80 white Kunming mice were taken, and 0.2 mL of the tumor cell suspension was subcutaneously inoculated to the left axilla of each mouse. 24 h after the inoculation of tumor cells, the mice were divided into 8 groups according to body weights, 10 mice for each group. […] All of the administration manners were intraperitoneal administration.
(§3) 3. Result of experiments: On the second day of modeling, continuous administration was performed for 10 d. Administration was stopped on the 11th d, and mice were sacrificed by cervical dislocation on the next day.
Test method: For the test method, see Example 24. Results can be seen in FIG. 15, FIG. 16, and Table 5.
(§4) Method: Modeling was performed by using the method of establishing H22 white mice tumor-bearing model of Example 24. The in vivo tumor growth inhibition activity of COM33 on H22 model mice was measured in an intraperitoneal injection administration manner.

[10] = parameters: species or system white Kunming mice; settings: mouse, in vivo
Description: as §2, §3, §4

[11] = tested on: hepatocellular carcinoma in late stages; settings: background; cited from earlier work

## COc1ccc2c(c1O)-c1c(OC)c(OC)cc3c1[C@H](C2)N(C)CC3 [ICD, isocorydine]
[1]; Homo sapiens, HepG2, Table 2, MTT
  IC50: 569 µM
Various HCC
  IC50: > 200 µM
[2]; Homo sapiens, HeLa, read-out: IC50 HeLa
  IC50: 581 µM
[3]; Homo sapiens, MGC-803, read-out: IC50 MGC-803
  IC50: 388 µM

## COc1cc(N)c2c(c1O)-c1c(OC)c(OC)cc3c1[C@H](C2)N(C)CC3 [NICD, 8-amino-isocorydine, reference compound]
[1]; Table 2, MTT
  IC50: 51.1 µM
[4]
  stability on storage in an aqueous solution: cannot be stored in an aqueous solution for a long period
[2]; read-out: IC50 Hela, Table 2, MTT
  IC50: 44.1 µM
[3]; read-out: IC50 MGC-803, Table 2, MTT
  IC50: 62.1 µM

## CNC(=O)c1cc(Oc2ccc(NC(=O)Nc3ccc(Cl)c(C(F)(F)F)c3)cc2)ccn1 [Sorafenib, reference compound]
HepG2 cells [5]
  apoptosis rate: 29.33%
HepG2 cells [6]
  cell cycle distribution compared to the blank control group: cells significantly increased in the G0/G1 phase of the cell cycle and significantly decreased in the S phase
HepG2 cells [7]
  apoptosis and cell morphology, Anneixn V-FITC and PI double-staining: apoptoses occurred during various phases
[8]; high COM33 dosage 10.0 μg/mL, combination 4 μg/mL sorafenib+5.0 μg/mL COM33
  expressions of C-Myc, Ki-67, CylinD1 and β-Catenin protein compared to the blank control group: significantly reduced
[8]; high FICD dosage 20 μg/mL, combination 4 μg/mL sorafenib+10 μg/mL FICD
  expressions of C-Myc, Ki-67, CylinD1 and β-Catenin protein compared to the blank group: significantly reduced
Vimentin; COM33 experiment (FIG. 17), combination compared to the sorafenib group
  Vimentin expression: expressed in all groups
Vimentin; FICD experiment (FIG. 12)
  Vimentin expression: significantly increased
[9]; Table 4, intraperitoneal, 10 d
  Tumor inhibition rate (%): 55.8%
[9]; Table 6, intraperitoneal injection
  Tumor inhibition rate (%): 56.5%
[10]
  toxic and side effects on increased dosage: toxic and side effects of sorafenib would obviously occur, resulting in death of experimental animals
[11]
  elongation of overall survival time of an HCC patient: 2 months
